The values below come from ChEMBL document CHEMBL1201862, “PubChem BioAssay data set” (2004).

Activity calls are given as the source filed them.

Assay [1] relates to BJ. Briefly: BJ-TERT fibroblast viability loss – cell-based, RAS-independent, luminescence, dose response (AID 1933). Particulars: Homo sapiens. Format: functional.
For assay [2], the system named is BJ. Put plainly: cells. Format: functional, cell-based. Particulars: Homo sapiens.
Assay [3] deals with BJ. Put plainly: BJ-TERT-LT-ST fibroblast viability loss – cell-based, RAS-independent, luminescence, dose response (AID 1935).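 Further: BJ fibroblasts immortalized with TERT plus LT and ST oncogenes.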 In kind it is functional. As to conditions: Homo sapiens.
Assay [4] is described as follows: DRD fibroblast viability loss – cell-based, non-viral oncogenic, luminescence, dose response (AID 1934). Particulars: Homo sapiens. In kind it is functional.
Another assay has as its system Jurkat. Put plainly: blockers of NF-kB activation in T cells – Jurkat, luciferase reporter, luminescence, B- and T-cell, dose response (AID 489004).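 Further: NF-kB luciferase reporter Jurkat cells stimulated with PMA plus ionomycin.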 In kind it is functional, cell-based. As to conditions: Homo sapiens.
Assay [5] can be described thus: HEK-293T viability loss, compound-treated – cell-based, uHTS hits, cytotoxicity control for B/T-cell NF-kB inhibitor project, dose response (AID 489019).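 Further: IC50 reflects cytotoxicity as loss of cell viability.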 In kind it is functional.
For assay [6], the target named is T1, Microphthalmia-associated transcription factor (Homo sapiens, UniProt O75030).
T1 sequence (O75030 whole entry): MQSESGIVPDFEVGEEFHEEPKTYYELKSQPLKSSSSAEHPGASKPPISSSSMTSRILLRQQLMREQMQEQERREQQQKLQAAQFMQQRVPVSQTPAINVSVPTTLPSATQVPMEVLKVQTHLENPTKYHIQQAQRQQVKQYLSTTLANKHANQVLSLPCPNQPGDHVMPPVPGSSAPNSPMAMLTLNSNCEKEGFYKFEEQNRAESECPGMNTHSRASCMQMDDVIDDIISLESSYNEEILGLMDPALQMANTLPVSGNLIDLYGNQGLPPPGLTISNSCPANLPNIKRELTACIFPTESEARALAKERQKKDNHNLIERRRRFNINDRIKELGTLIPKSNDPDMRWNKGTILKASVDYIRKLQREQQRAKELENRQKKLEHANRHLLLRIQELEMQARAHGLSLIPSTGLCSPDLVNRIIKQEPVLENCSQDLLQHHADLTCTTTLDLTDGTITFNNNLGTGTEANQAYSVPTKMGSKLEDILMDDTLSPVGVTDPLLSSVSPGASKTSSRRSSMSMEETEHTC
Put plainly: reducers of TRPM1 reporter luminescence, concentration series – cell-based, SK-MEL-5, cherry-picked, set 3, MITF inhibitor project, dose response (AID 493073).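 Further: SK-MEL-5 melanoma cells with luciferase driven by the MITF target TRPM1 promoter.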 In kind it is functional.

A further assay has as its system A-375. Briefly: proliferation inhibition in MITF-low A375 cells – cell-based, cherry-pick samples, set 2, counter-screen for MITF modulator project, dose response (AID 540335). Particulars: Homo sapiens. Format: functional.
For another assay, the target named is Melanocortin receptor 4 (Homo sapiens, UniProt P32245). Briefly: inhibitors of MC4R cAMP signaling – cell-based, TR-FRET, biased antagonists, dose response (AID 602298).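 Further: antagonist potency against agonist-stimulated cAMP production.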 In kind it is functional.
Assay [7] can be described thus: reduction of Shn3 3'UTR-driven luciferase in osteoblasts – cell-based, Clone20 osteoblasts, firefly luciferase, cherry-picked, dose response (AID 624132).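 Further: firefly luciferase luminescence from reporter carrying the Shn3 3'UTR in osteoblasts.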 In kind it is functional.
A short description of assay [8]: loss of viability in HepG2 cells – cell-based, CellTiter-Glo, cherry-picked, cytotoxicity control for Shn3 inhibitor project, dose response (AID 624134). In kind it is functional.
Assay [9] in a line: non-specific 3'UTR reporter inhibition in Clone20-Shn3RL – cell-based, Renilla luciferase, cherry-picked, counter-screen for Shn3 inhibitor project, dose response (AID 624133). In kind it is functional.
Assay [10] is described as follows: cAMP pathway inhibition in counterscreen cell line – TR-FRET cAMP detection, counter-screen for MC4R biased antagonist project, dose response (AID 602305).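 Further: U2OS cells stimulated with forskolin near its EC80 as the cAMP inducer; potency is for inhibition of forskolin-stimulated cAMP signaling.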 In kind it is functional, cell-based.
Assay [11] in a line: activation of miR-122 Renilla sensor silencing – cell-based, Huh7 psiCHECK-miR122, Renilla luciferase, cherry-picked, dose response (AID 651956).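 Further: huh7 hepatoma cells stably carrying a psiCHECK-2 miR-122 sensor plasmid; renilla luciferase signal reporting endogenous miR-122 activity after 48 h compound exposure.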 Format: functional.
Assay [12] is described as follows: reduced cellular PGC1a acetyl-lysine signal – cell-based, cherry-picked samples, dose response (AID 720514).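 Further: potency may reflect raised or lowered acetylation signal.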 Format: functional.
A short description of assay [13]: general mammalian cell viability loss – inhibitor set, cherry-pick, set 2, cytotoxicity control for miR-122 modulator project, dose response (AID 720697). Format: functional, cell-based.
Assay [14] is described as follows: general mammalian cell viability loss – activator set, cherry-pick, cytotoxicity control for miR-122 modulator project, dose response (AID 720690).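 Further: HEK293T human cells scored for general mammalian cytotoxicity.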 Format: functional, cell-based.
The next assay has as its target Nonstructural protein 1 (Influenza A virus, UniProt Q194T2). In kind it is functional, Influenza A virus (A/California/07/2009(H1N1)).
The target in assay [15] is Delta-type opioid receptor (Homo sapiens, UniProt P41143). Put plainly: Counterscreen for agonists of heterodimerization of the mu 1 (OPRM1) and delta 1 (OPRD1) opioid receptors: Luminescence-based cell-based high throughput dose response assay to identify agonists of OPRD1 homodimerization. [Related pubchem assays (depositor defined):AID504326, AID504355, AID504692, AID504904, AID504905]. Format: functional.

The target in another assay is Mu-type opioid receptor (Homo sapiens, UniProt P35372). Briefly: Counterscreen for agonists of heterodimerization of the mu 1 (OPRM1) and delta 1 (OPRD1) opioid receptors: Luminescence-based cell-based high throughput dose response assay to identify agonists of OPRM1 homodimerization. In kind it is functional.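 Further: U2OS cells expressing OPRM1 and beta-arrestin as split beta-galactosidase partners.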
The target in assay [16] is 5-hydroxytryptamine receptor 5A (Homo sapiens, UniProt P47898). Briefly: Counterscreen for agonists of OPRM1-OPRD1 heterodimerization: luminescence-based cell-based high throughput dose response assay to identify agonists of 5-hydroxytryptamine (serotonin) 5A receptor (HTR5A). [Related pubchem assays (depositor defined):AID504326, AID504355, AID504692, AID504904, AID504905]. Format: functional.

The nature of assay [17]: viability loss in HeLa cells – cytotoxicity control for MgcRacGAP inhibitor project, dose response (AID 624300). Format: functional.
In assay [18] the target is T2, Rac GTPase-activating protein 1 (Homo sapiens, UniProt Q9H0H5).
T2 sequence (Q9H0H5 whole entry): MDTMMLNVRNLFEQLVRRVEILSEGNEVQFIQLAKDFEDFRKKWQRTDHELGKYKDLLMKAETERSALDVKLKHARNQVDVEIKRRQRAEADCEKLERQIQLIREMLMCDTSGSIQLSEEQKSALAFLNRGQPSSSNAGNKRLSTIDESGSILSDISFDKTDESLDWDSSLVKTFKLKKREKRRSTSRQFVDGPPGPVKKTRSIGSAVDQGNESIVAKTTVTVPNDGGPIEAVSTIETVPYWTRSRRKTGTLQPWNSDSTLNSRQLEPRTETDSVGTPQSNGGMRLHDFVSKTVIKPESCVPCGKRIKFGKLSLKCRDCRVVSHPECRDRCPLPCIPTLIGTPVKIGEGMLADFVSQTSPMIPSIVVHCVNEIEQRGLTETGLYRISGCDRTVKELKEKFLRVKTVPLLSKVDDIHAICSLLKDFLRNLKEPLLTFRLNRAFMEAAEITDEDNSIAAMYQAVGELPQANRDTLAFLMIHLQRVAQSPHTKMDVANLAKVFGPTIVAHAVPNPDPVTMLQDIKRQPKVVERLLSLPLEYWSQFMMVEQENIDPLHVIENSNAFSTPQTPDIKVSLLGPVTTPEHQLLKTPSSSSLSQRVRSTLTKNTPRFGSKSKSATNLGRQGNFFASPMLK
Put plainly: blockers of MgcRacGAP-driven Rac1 GTP hydrolysis – biochemical, ADP Hunter fluorescence, primary and confirmatory, confirmation (AID 624330). In kind it is functional.

Assay [19] is described as follows: viability loss in THP-1 monocytes – THP-1 cells, cytotoxicity control for Vif-APOBEC3G degradation inhibitor project, dose response (AID 1117359). In kind it is functional. Particulars: THP-1.
The target of assay [20] is Glutathione-S-transferase (Schistosoma japonicum, UniProt Q26513). Briefly: GST-antibody interaction or FRET quenching – biochemical, TR-FRET, artefact control for Vif-APOBEC3G degradation inhibitor project, dose response (AID 1117362). In kind it is functional.
Assay [21] deals with Dual specificity protein phosphatase 3 (Homo sapiens, UniProt P51452). Briefly: SAR VHR1 Fluorescent Assay for In Vitro dose response studies Set 3. [Related pubchem assays (depositor defined):AID1654, AID1661, AID1878]. Format: functional.
Sequence of Dual specificity protein phosphatase 3 (P51452 whole entry): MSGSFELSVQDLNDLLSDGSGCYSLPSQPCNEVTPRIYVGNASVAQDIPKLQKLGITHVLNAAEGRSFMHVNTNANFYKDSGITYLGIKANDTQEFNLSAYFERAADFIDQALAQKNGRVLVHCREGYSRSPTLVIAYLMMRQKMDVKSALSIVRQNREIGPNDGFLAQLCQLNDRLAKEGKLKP

Sequence of Melanocortin receptor 4 (P32245 whole entry): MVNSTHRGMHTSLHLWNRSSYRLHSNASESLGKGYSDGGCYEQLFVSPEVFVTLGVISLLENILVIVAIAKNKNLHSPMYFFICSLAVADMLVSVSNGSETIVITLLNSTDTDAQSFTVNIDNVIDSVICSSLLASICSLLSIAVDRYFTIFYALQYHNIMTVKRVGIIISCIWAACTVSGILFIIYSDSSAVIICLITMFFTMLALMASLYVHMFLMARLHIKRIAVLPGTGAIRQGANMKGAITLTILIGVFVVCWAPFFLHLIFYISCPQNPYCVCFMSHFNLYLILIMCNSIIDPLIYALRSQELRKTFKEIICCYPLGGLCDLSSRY
Sequence of Mu-type opioid receptor (P35372 whole entry): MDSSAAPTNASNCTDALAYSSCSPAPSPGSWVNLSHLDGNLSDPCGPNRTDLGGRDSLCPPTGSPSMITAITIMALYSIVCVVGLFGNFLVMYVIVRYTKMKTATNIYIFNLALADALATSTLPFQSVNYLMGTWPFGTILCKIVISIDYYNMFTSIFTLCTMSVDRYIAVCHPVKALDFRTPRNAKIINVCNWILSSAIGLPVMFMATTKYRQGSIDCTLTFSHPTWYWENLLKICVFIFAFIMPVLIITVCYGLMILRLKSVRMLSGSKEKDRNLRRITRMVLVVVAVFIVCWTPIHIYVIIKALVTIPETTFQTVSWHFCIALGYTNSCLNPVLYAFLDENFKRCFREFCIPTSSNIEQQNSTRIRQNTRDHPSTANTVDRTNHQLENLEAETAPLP
Sequence of Glutathione-S-transferase (Q26513 whole entry): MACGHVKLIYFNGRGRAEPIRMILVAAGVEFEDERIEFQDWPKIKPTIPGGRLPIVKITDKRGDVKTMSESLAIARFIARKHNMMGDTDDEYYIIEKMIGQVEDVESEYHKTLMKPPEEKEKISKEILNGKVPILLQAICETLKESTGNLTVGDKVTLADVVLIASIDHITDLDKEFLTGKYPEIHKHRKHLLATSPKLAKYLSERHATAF
Sequence of Nonstructural protein 1 (Q194T2 whole entry): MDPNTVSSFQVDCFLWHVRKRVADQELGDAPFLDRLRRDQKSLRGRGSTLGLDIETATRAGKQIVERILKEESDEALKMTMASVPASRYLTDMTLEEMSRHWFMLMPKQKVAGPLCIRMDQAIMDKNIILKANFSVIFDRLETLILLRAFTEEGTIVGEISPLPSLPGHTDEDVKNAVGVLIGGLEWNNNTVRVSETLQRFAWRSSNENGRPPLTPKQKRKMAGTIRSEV
Sequence of 5-hydroxytryptamine receptor 5A (P47898 whole entry): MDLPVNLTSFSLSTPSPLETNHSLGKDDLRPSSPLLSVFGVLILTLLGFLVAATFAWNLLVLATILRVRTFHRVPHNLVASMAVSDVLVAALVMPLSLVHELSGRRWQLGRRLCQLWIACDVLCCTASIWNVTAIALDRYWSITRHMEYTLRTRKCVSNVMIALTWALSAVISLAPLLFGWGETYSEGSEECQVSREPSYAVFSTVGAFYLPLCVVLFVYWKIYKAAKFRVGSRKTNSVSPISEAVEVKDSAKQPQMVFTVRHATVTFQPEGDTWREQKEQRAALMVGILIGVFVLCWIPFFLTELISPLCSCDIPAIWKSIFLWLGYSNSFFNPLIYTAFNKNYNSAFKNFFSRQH
Sequence of Delta-type opioid receptor (P41143 whole entry): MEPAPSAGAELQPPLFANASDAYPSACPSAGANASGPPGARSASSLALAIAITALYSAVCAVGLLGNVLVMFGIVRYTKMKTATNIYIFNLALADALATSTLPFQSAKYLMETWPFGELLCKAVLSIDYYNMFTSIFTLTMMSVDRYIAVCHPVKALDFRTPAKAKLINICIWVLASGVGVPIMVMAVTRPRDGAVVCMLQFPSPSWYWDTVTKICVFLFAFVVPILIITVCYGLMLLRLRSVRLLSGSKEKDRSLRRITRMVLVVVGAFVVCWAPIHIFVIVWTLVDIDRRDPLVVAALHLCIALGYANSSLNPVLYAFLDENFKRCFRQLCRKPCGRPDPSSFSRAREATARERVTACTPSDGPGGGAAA

On to `C#CC(=O)N(c1ccc(OC)c(OC)c1)C(C(=O)NC1CCCC1)c1cccs1` (stereo unspecified), for which the EC50 in the assay on BJ [1] is 0.171 µM (inconclusive); with BJ [2], 5.23 µM (inconclusive); in the assay on BJ [3] it was 7.04 µM (active); in [4], 3.54 µM (active). The IC50 is 0.26 µM (active) in the assay on Jurkat, 73 µM (inactive) in [5], 2.51 µM (active) on Melanocortin receptor 4 and > 64.6 µM (inactive) in [10]. The half-maximal activity concentration (AC50) in [6] is 3.31 µM (active); in the assay on A-375, 5.92 µM (active); in [7], 3.32 µM (active); in assay [8], 2.4 µM (active); in [9], 14.3 µM (active); in assay [11], 0.651 µM (active). Also, the figures for the AC50 in [12], in assay [13] and in assay [14] were 3.18 µM (active), < 0.195 µM (active) and < 0.195 µM (active), respectively.

`CCN(CC)Cc1cc(Nc2c3ccccc3nc3c4ccccc4n(C)c23)cc(CN(CC)CC)c1O`: the results for the 50% inhibitory concentration (IC50) (on Nonstructural protein 1; in assay [18]; in [20]) were 17.9 µM (active), 22.1 µM (active) and 59.5 µM (active), respectively. For the same molecule, the EC50 in assay [15] was 1.49 µM (active); at Mu-type opioid receptor it was > 92.6 µM (inactive); in assay [16], > 92.6 µM (inactive). Further, the CC50 in assay [17] was 80 µM (active); in [19], 11 µM (active).

Turning to `Cc1cc(NC(=O)c2ccccc2Cl)ccc1NC(=O)CSc1nnc(-c2cccs2)n1C`, the IC50 in [21] is 25.3 µM (active).
